Where “and” joins values, the source holds several entries; their conditions need not be identical. Equal values may be shown once.
Assay: Extrapolated human dosimetry (OLINDA/EXM, ICRP-89 phantoms)
Protocol: To address inter-animal variability, the TIACs for each source organ were calculated from both the mean nTACs and the nTACs obtainend from fitting the mean ± 1 standard deviation (SD) of the normalized time-activity data, providing upper and lower bounds.
The mice-to-human TIAC extrapolation accounted for species-specific differences in relative source organ masses, m(organ), as compared to the total body weight (WB), for the mice (m) and human (h) models respectively.
(§1) The human organ masses, m(organ)h, were obtained from ICRP-89 adult male and female reference phantoms, while the murine organ masses, m(organ)m, were derived from the standard MOBY mouse model. The extrapolated human TIACs, TIACh were entered in the OLINDA/EXM software to compute the absorbed doses to target organs and the effective dose for adult male, female, and gender-averaged human models. […]
The TIACs, for [177Lu]Lu-DOTAGA.Glu.(FAPI)2 and [177Lu]Lu-DO3A.Glu.(FAPI)2, were determined by time integration of the nTACs. To account for the inter-animal variability, the TIACs for each source organ were calculated using both the mean nTACs and the nTACs obtainend from fitting the mean ±1 standard deviation (SD) of the normalized time-activity data. This approach provided the upper and the lower bounds for the estimated TIACs.
The mice-to-human TIAC extrapolation was obtained considering the different (species-specific) relative source organ masses, m(organ), as compared to the total body weight (WB), for the mice (m) and human (h) models respectively.
as §1, with “the” for “ICRP-89”, “models phantoms defined in ICRP-89,” for “phantoms,”, “TIACs values, TIACh, for each source organ” for “TIACs, TIACh”, “input into the kinetic module of” for “entered in”, “software (version 2.1, HERMES Medical Solutions AB, Stockholm, Sweden)” for “software”

[1] = ICRP 89 Adult Female, extrapolated
[2] = ICRP 89 Adult Male, extrapolated

Absorbed dose (AD average) Adrenals [1]: 1.39E-02 mGy/Mbq | Absorbed dose (AD average) Brain [1]: 3.68E-02 mGy/Mbq | Absorbed dose (AD average) Breasts [1]: 3.54E-02 mGy/Mbq | Absorbed dose (AD average) Esophagus [1]: 3.67E-02 mGy/Mbq | Absorbed dose (AD average) Eyes [1]: 3.68E-02 mGy/Mbq | Absorbed dose (AD average) Gallbladder Wall [1]: 3.79E-02 mGy/Mbq | Absorbed dose (AD average) Heart Wall [1]: 3.39E-02 mGy/Mbq | Absorbed dose (AD average) Left colon [1]: 3.75E-02 mGy/Mbq | Absorbed dose (AD average) Ovaries [1]: 3.75E-02 mGy/Mbq | Absorbed dose (AD average) Rectum [1]: 3.75E-02 mGy/Mbq | Absorbed dose (AD average) Right colon [1]: 3.76E-02 mGy/Mbq | Absorbed dose (AD average) Stomach Wall [1]: 3.75E-02 mGy/Mbq | Absorbed dose (AD average) Thymus [1]: 3.72E-02 mGy/Mbq | Absorbed dose (AD average) Thyroid [1]: 3.64E-02 mGy/Mbq | Absorbed dose (AD average) Urinary Bladder Wall [1]: 3.70E-02 mGy/Mbq | Absorbed dose (AD average) Uterus [1]: 3.73E-02 mGy/Mbq | Effective dose (average) [1]: 4.10E-02 | Absorbed dose (AD average) Adrenals [2]: 1.05E-02 mGy/Mbq | Absorbed dose (AD average) Brain [2]: 2.80E-02 mGy/Mbq | Absorbed dose (AD average) Esophagus [2]: 2.84E-02 mGy/Mbq | Absorbed dose (AD average) Eyes [2]: 2.80E-02 mGy/Mbq | Absorbed dose (AD average) Gallbladder Wall [2]: 3.02E-02 mGy/Mbq | Absorbed dose (AD average) Heart Wall [2]: 2.78E-02 mGy/Mbq | Absorbed dose (AD average) Left colon [2]: 2.85E-02 mGy/Mbq | Absorbed dose (AD average) Prostate [2]: 2.81E-02 mGy/Mbq | Absorbed dose (AD average) Rectum [2]: 2.84E-02 mGy/Mbq | Absorbed dose (AD average) Right colon [2]: 2.86E-02 mGy/Mbq | Absorbed dose (AD average) Stomach Wall [2]: 2.84E-02 mGy/Mbq | Absorbed dose (AD average) Testes [2]: 2.72E-02 mGy/Mbq | Absorbed dose (AD average) Thymus [2]: 2.79E-02 mGy/Mbq | Absorbed dose (AD average) Thyroid [2]: 2.81E-02 mGy/Mbq | Absorbed dose (AD average) Urinary Bladder Wall [2]: 2.81E-02 mGy/Mbq | Effective dose (average) (ICRP 89 Adult Male, extrapolated, in mSv/MBq (unit assumed)): 2.91E-02 | higher tissue doses vs. the 177Lu-labeled analogs (human extrapolation, average over tissues): ~ 38%
Compound: N#C[C@@H]1CC(F)(F)CN1C(=O)CNC(=O)c1ccnc2ccc(OCCCCNC(=O)CC[C@H](NC(=O)CN3CCN(CC(=O)[O-])CCN(CC(=O)[O-])CCN(CC(=O)[O-])CC3)C(=O)NCCCCOc3ccc4nccc(C(=O)NCC(=O)N5CC(F)(F)C[C@H]5C#N)c4c3)cc12.[161Tb+3] [[^161Tb]Tb-DO3A.Glu.(FAPI)2]
Absorbed dose (AD average) Kidneys [1]: 3.48E-02 ± 0.001 mGy/Mbq and 3.48E-02 mGy/Mbq | Absorbed dose (AD average) Liver [1]: 1.01E-01 ± 0.004 mGy/Mbq and 1.01E-01 mGy/Mbq | Absorbed dose (AD average) Lungs [1]: 5.78E-02 ± 0.01 mGy/Mbq and 5.78E-02 mGy/Mbq | Absorbed dose (AD average) Osteogenic Cells [1]: 8.70E-02 ± 0.003 mGy/Mbq and 8.70E-02 mGy/Mbq | Absorbed dose (AD average) Pancreas [1]: 3.59E-02 ± 0.001 mGy/Mbq and 3.59E-02 mGy/Mbq | Absorbed dose (AD average) Red Marrow [1]: 4.37E-02 ± 0.002 mGy/Mbq and 4.37E-02 mGy/Mbq | Absorbed dose (AD average) Salivary Glands [1]: 1.22E-01 ± 0.01 mGy/Mbq and 1.22E-01 mGy/Mbq | Absorbed dose (AD average) Small Intestine [1]: 3.72E-02 ± 0.002 mGy/Mbq and 3.72E-02 mGy/Mbq | Absorbed dose (AD average) Spleen [1]: 8.87E-02 ± 0.004 mGy/Mbq and 8.87E-02 mGy/Mbq | Absorbed dose (AD average) Total Body [1]: 4.70E-02 ± 0.002 mGy/Mbq and 4.70E-02 mGy/Mbq | Absorbed dose (AD average) Kidneys [2]: 2.84E-02 ± 0.001 mGy/Mbq and 2.84E-02 mGy/Mbq | Absorbed dose (AD average) Liver [2]: 8.31E-02 ± 0.003 mGy/Mbq and 8.31E-02 mGy/Mbq | Absorbed dose (AD average) Lungs [2]: 4.73E-02 ± 0.01 mGy/Mbq and 4.73E-02 mGy/Mbq | Absorbed dose (AD average) Osteogenic Cells [2]: 8.97E-02 ± 0.003 mGy/Mbq and 8.97E-02 mGy/Mbq | Absorbed dose (AD average) Pancreas [2]: 2.88E-02 ± 0.001 mGy/Mbq and 2.88E-02 mGy/Mbq | Absorbed dose (AD average) Red Marrow [2]: 3.45E-02 ± 0.001 mGy/Mbq and 3.45E-02 mGy/Mbq | Absorbed dose (AD average) Salivary Glands [2]: 1.00E-01 ± 0.01 mGy/Mbq and 1.00E-01 mGy/Mbq | Absorbed dose (AD average) Small Intestine [2]: 2.85E-02 ± 0.001 mGy/Mbq and 2.85E-02 mGy/Mbq | Absorbed dose (AD average) Spleen [2]: 7.27E-02 ± 0.003 mGy/Mbq and 7.27E-02 mGy/Mbq | Absorbed dose (AD average) Total Body [2]: 3.70E-02 ± 0.002 mGy/Mbq and 3.70E-02 mGy/Mbq

Reference: paper PMC12860872, “Preclinical evaluation of DOTAGA.Glu.(FAPI)2 and DO3A.Glu.(FAPI)2 as theranostics with human dosimetry extrapolation to lutetium-177 and terbium-161 analogs” (European Journal of Nuclear Medicine and Molecular Imaging, 2025)
